US20050282745A1, “Non-mammalian GnRH analogs and uses thereof in regulation of fertility and pregnancy” (priority 2001, published 2005)
Non-standard residues stand in square brackets, D forms with d. Residues, ends and D or L forms follow the SMILES beside them. pGlu = O=C1CC[C@@H](C(=O)O)N1; azaGly = NNC(=O)O

What was measured:
[1] = test system: chorionic peptidase-1 (C-ase-1)
Protocol: (§1) Using the incubation system developed for the C-ase-1 activity, the degradation of each analog was tested. […] These studies were done using the C-ase-1 enzyme activity assay as described previously. […] The product formed was calculated by subtraction, and its inverse plotted against the inverse of the original substrate concentrations to determine the nature of the competition. The Ki was to be determined by plotting the inverse of the product that formed verses the inhibitor used.
(§2) The concentration of the product of the degraded GnRH was quantified by subtracting the remaining mammalian GnRH from the starting concentrations of mammalian GnRH. […] The Ks for the degradation of mammalian GnRH was calculated from the x axis intercept using Lineweaver-Burke double reciprocal plot of the concentration of the product formed versus the concentration of the substrate used.
(§3) The reaction was stopped by heating at 85° C. for 10 minutes. The remaining GnRH was determined using a specific radioimmunoassay. The formation of product, i.e., the N-terminal nonapeptide of GnRH, was calculated by subtraction and its inverse was plotted versus the inverse of the initial substrate to determine the Ks of the reaction. […] The relative potency of each analog was compared.
(§4) Using the incubation system developed for the C-ase-1 activity, the degradation of each analog was studied. […] The inverse of the product was plotted against the inverse of the original substrate concentrations to determine Ks of the competition. The Ki was determined by plotting the inverse of the product formed verses the inhibitor used.

[2] = biological target: baboon ovary GnRH receptor; test: Baboon ovary membrane GnRH receptor binding; settings: baboon ovary membranes; read-out: GnRH receptor affinity
Protocol: The receptor binding activity of newly synthesized non-mammalian GnRH analogs was studied in ovarian and uterine tissues. […] The ovaries of the three baboons were extracted and the cytosolic and membrane fractions were recovered for the tissues. The membrane fraction from one animal was titred for GnRH receptor binding activity using D-Arg(6)-chicken II GnRH-aza-Gly(10)-amide radiolabeled ligand. Receptors were clearly demonstrable even at 4 μg membrane protein/tube. […] The chicken II GnRH analog (SEQ ID NO: 2) had the highest affinity for any GnRH analog reported to date.

rhesus monkey = test: Contraceptive activity in mated rhesus monkeys, osmotic mini-pump; type: in vivo
Description: In these studies we examined the effect of a stable analog of chicken II GnRH on ovarian steroidogenesis, implantation and maintainence of pregnancy in the rhesus monkey. We administered this chicken II GnRH analog (SEQ ID NO: 2) or saline via osmotic mini-pumps from Day 1-6, Day 6-11 or Day 11-17 to regularly cycling monkeys mated with fertile males around the time of ovulation. Circulating estradiol (E2) and progesterone (P) in the luteal phase was observed as well as cycle length in this and subsequent cycle. Implantation and pregnancy were confirmed by circulating CG and continued progesterone production. […] In animals treated on day 6-11 or days 11-17, no effect on luteinization or cycle length was noted; and two of five (40.0%), and one of three animals (33.3%), respectively, implanted with normal pregnancies resulting.

[3] = biological target: baboon endometrium (stroma and epithelium) receptor; test: Baboon endometrium receptor binding; settings: read-out: receptor affinity
Description: Due to the limited number of cells it was not possible to precisely define the affinity of this receptor.

[4] = test system: baboon uterine tissue GnRH receptor; test: Baboon uterine tissue GnRH receptor binding
Description: These chicken II GnRH analogs (SEQ ID NO: 2) may have particular applicability for regulation of implantation and in uterine tissue conditions, such as endometriosis, abnormal uterine bleeding, and leiomyomas. Thus, high affinity receptors for chicken II GnRH analogs (SEQ ID NO: 2) have been defined in baboon ovary and uterus tissues.

baboon granulosa cells = test: Baboon granulosa cell culture, progesterone release; type: cell-based
Description: The biopotency of chicken II GnRH analogs (SEQ ID NO: 2) in the regulation of baboon ovarian function was studied. The effect of mammalian and chicken II GnRH analogs (SEQ ID NO: 2) on ovarian progesterone release was studied using granulosa cell cultures. The dose-related action of a stable analog of chicken II GnRH (SEQ ID NO: 2) on progesterone production was defined using baboon granulosa cell cultures. After a two hour basal study period, the medium was supplemented with either Buserilin (SEQ ID NO: 10) (10^−7) or a chicken II GnRH analog (SEQ ID NO: 2) (10^−9, 10^−8, 10^−7, 10^−6 M) leaving four control wells. […] This inhibition was sustained after 48 hours of treatment. […] In addition, the action of the analog on three different stromal and three different epithelial endometrial primary cell lines (after 3-5 passages) has been studied and PGE2 determined as indicated in FIG. 31.

[5] = biological target: chorionic peptidase-1 (C-ase-1); test: C-ase-1 enzyme activity assay, competition for degradation of GnRH; settings: competition for degradation of mammalian GnRH, Example III
Protocol: as §1, §2, §3, §4

human sperm = test: Human sperm motility in vitro; type: cell-based
Protocol: Normal human sperm ([…]) were obtained with seminal plasma and the motility of the sperm was assessed microscopically. Both the fraction of motile sperm and the forward sperm motion were assessed. These parameters were measured just prior to a 1:5 dilution with phosphate buffered saline containing 0 to 200 nM chicken II GnRH analog (SEQ ID NO: 2). The motility and motion of the sperm were assessed at 2, 30, 60, 90, 120 and 180 minutes after incubation at 37 C. […] By 180 minutes the motility of the control had fallen to that of all the treated sperm.

[6] = test system: early human placental explants; test: Placental explant perifusion, hCG release; type: cell-based; settings: for pattern of hCG response: continuous perifusion
Description: Placental tissues that are normally discarded were obtained from unidentified patients following first trimester pregnancy termination (early human placental explants). Tissue fragments, dissected of vessels and membranes, were placed in a perfusion system for study of 20 replicate chambers of the same tissue. This allows for simultaneous dose-response studies to be performed. To achieve this specific aim, explants from a given placenta were placed in 20 replicate chambers and perfused with basal medium for three hours at a rate of 6 ml/hr (dead volume of the system at 6 ml/hr is ten minutes). After three hours of equilibration, the analog was added to the basal perfusing medium. Quaduplicate chambers were made for chicken II GnRH analog (SEQ ID NO: 2) at 0, 10^−9, 10^−8, 10^−7, 10^−6 M and Buserelin (SEQ ID NO: 10) at 10^−7 M. The effluent medium of each chamber was collected after a three hour equilibration period. Two basal samples, at half hour intervals were collected, media with test substances was initiated and effluent medium collection continued for four and one half hours at thirty minute intervals. The hCG release was analyzed in each of these experiments. FIGS. 16 and 17 illustrate a typical response. […] Maximal response was observed within minutes after initiation of perfusion at 10^−8 M, with possible down regulation beginning after five hours at 10^−6 M as illustrated in FIG. 18.
In additional experiments, early gestation human placentas were perfused for six hours with medium supplemented with estradiol, progesterone, bovine serum albumin, and antibiotics (basal medium). Twenty replicate chambers were perifused with basal medium for two hours, then triplicate chambers were perifused with the medium containing either Buserelin (SEQ ID NO: 10), or 10^−9, 10^−8, 10^−7, 10^−6 M of a chicken II GnRH analog (SEQ ID NO: 2), leaving five control chambers. The eluted medium was collected at thirty minute intervals, starting one hour prior to the addition of GnRH analogs and throughout five hours of treatment. hCG released into the effluent media, as well as the production of GnRH, were measured using sensitive and specific radioimmunoassays. The release of hCG at each time point was normalized to its zero treatment release and the release throughout the treatment period and its average release was compared for various treatment regimens. These studies were repeated using tissues from three different first trimester placentas. The results of this experiment are illustrated in FIG. 20.

degradation by / competition for C-ase-1, in words [1]: essentially not degraded
Kd [2]: 10 nM
Kd [3]: ~60 nM
binding affinity, in words [4]: high binding affinity
Ki [5]: > 400 nM
Structure (SMILES): N=C(N)NCCC[C@@H](NC(=O)[C@H](Cc1c[nH]cn1)NC(=O)[C@H](CO)NC(=O)[C@H](Cc1c[nH]c2ccccc12)NC(=O)[C@H](Cc1c[nH]cn1)NC(=O)[C@@H]1CCC(=O)N1)C(=O)N[C@@H](Cc1c[nH]c2ccccc12)C(=O)N[C@@H](Cc1ccc(O)cc1)C(=O)N1CCC[C@H]1C(=O)NNC(N)=O [D-Arg(6)-chicken II GnRH-aza-Gly(10)-amide] ([pGlu]HWSH[dR]WYP[azaGly]-NH2)
pregnancies (rhesus monkey; treated Day 1-6): no pregnancies resulted
effect on progesterone production or cycle length (rhesus monkey; treated day 1-6): no significant effect
animals implanted with normal pregnancies (rhesus monkey; treated day 6-11, two of five): 40.0%
effect on luteinization or cycle length (rhesus monkey; treated day 6-11 or days 11-17): no effect
animals implanted with normal pregnancies (rhesus monkey; treated days 11-17, one of three): 33.3%
progesterone release, of untreated controls (baboon granulosa cells; 10^−8M, within 24 hours): 31%
effect on progesterone release, in words (baboon granulosa cells; chicken II analog 10^−9 to 10^−6 M, Buserelin 10^−7): dose-related inhibition of progesterone release
concentration of maximal inhibition of progesterone release (baboon granulosa cells; within 24 hours): 10^−8 M
forward motion of remaining motile sperm (human sperm): maintained a high grade
time until inhibition of motility (human sperm; 2 nM): 30 min
sperm motility (human sperm; 20 to 200 nM): initially inhibited
concentration giving maximal hCG response ([6]; 10^−9 to 10^−6 M tested): 10^−8 M
pattern of hCG response ([6]; listed as Chicken II GnRH analog): dose related biphasic response
pattern of hCG response ([6]; listed as chicken II GnRH analog): biphasic stimulation of hCG
